# Measurements reported in patent US20230146455A1, “TREATMENT OF INFLAMMATORY DISEASES WITH PEPTIDES AND PHARMACEUTICAL COMPOSITIONS” (Yuyu Pharma, Inc., priority 2020, published 2023).
# Values joined by “and” are separate entries in the source; they are usually repeats but may differ in a detail not shown here. Equal entries are not always repeated. Where a SMILES comes first, the peptide text is derived from it. [ ]: non-standard residue; d: D form. Hyp = O=C(O)[C@@H]1C[C@@H](O)CN1
# System: TIMP-1
# Assay: Example 9 Luminex, LPS hPBMCs: TIMP-1
# Format: cell-based, human
# Conditions: PBMC + LPS(5 ug/ml)
# Method: Treatment Human PBMCs were pretreated with YY-101, YDE-011 and YDE-043 or reference compound; Xiidra® at various concentration (ranging from 1 nM to 100 uM) for 2 h before stimulation. An equal volume of 0.5% DMSO was used as a vehicle control. Then, the cells were treated with LPS at 5 ug/ml. The supernatants from treated cells were harvested at 24 h and placed in a 96 well for Luminex cytokine & chemokine profiling using a Luminex 200 multiplex assay (Luminex; R&D system, USA).
# The main study arm with triplicate wells per group in a 24-well plate: • 1. Blank • 2. PBMC: 0.5% DMSO • 3. PBMC+LPS (5 ug/ml) • 4. PBMC+YY-101 100 uM • 5. PBMC+YY-101 10 uM • 6. PBMC+YY-101 1 uM • 7. PBMC+YY-101 0.1 uM • 8. PBMC+YY-101 0.01 uM • 9. PBMC+LPS (5 ug/ml)+Xiidra®100 uM • 10. PBMC+LPS (5 ug/ml)+Xiidra® 10 uM • 11. PBMC+LPS (5 ug/ml)+Xiidra® 1 uM • 12. PBMC+LPS (5 ug/ml)+Xiidra®0.1 uM • 13. PBMC+LPS (5 ug/ml)+Xiidra®0.01 uM • 14. PBMC+LPS (5 ug/ml)+Xiidra®0.001 uM • 15. PBMC+LPS (5 ug/ml)+YY-101 100 uM • 16. PBMC+LPS (5 ug/ml)+YY-101 10 uM • 17. PBMC+LPS (5 ug/ml)+YY-101 1 uM • 18. PBMC+LPS (5 ug/ml)+YY-101 0.1 uM • 19. PBMC+LPS (5 ug/ml)+YY-101 0.01 uM • 20. PBMC+LPS (5 ug/ml)+YY-101 0.001 uM • 21. PBMC+LPS (5 ug/ml)+YDE-011 100 uM • 22. PBMC+LPS (5 ug/ml)+YDE-011 10 uM • 23. PBMC+LPS (5 ug/ml)+YDE-011 1 uM • 24. PBMC+LPS (5 ug/ml)+YDE-011 0.1 uM • 25. PBMC+LPS (5 ug/ml)+YDE-011 0.01 uM • 26. PBMC+LPS (5 ug/ml)+YDE-011 0.001 uM • 27. PBMC+LPS (5 ug/ml)+YDE-043 100 uM • 28. PBMC+LPS (5 ug/ml)+YDE-043 10 uM • 29. PBMC+LPS (5 ug/ml)+YDE-043 1 uM • 30. PBMC+LPS (5 ug/ml)+YDE-043 0.1 uM • 31. PBMC+LPS (5 ug/ml)+YDE-043 0.01 uM • 32. PBMC+LPS (5 ug/ml)+YDE-043 0.001 uM
# Multiplex assay was used to measure 30 cytokines and chemokines. The 1:2, 1:10 and 1:200 diluted cell supernatant and serial dilution of the standard were dispensed into a 96 well plate at 50 ul/well. Then, the pre-mixed cocktail of antibody-coated magnetic beads was dispensed at 50 ul/well and incubated at room temperature for 2 h in a horizontal orbital microplate shaker at 800±500 rpm. The beads were washed using a magnetic device to prevent loss. The biotin-antibody was dispensed in 50 ul of each well and incubated at room temperature for 1 h in a shaker at 800±500 rpm. After washing, streptavidin-PE was added at 50 ul/well and incubated at room temperature for 30 min in a shaker under the same conditions. Finally, after washing, wash buffer (100 ul/well) was added to the plate and incubated in a shaker for 2 min. The Luminex™ 200 setting were set according to the manufacturer's protocol. The data was calculated with a standard five-parameter logistic nonlinear regression analysis of the data (xPonent software 4.2, USA). The levels of cytokine/chemokine are normalized to the live cell counts (1×10^5 cells/mL) and presented as concentrations per mL (pg/mL or ng/mL).
# [1] = test article 0.001 uM, single replicates
# [2] = test article 0.01 uM, single replicates
# [3] = test article 0.1 uM, single replicates
# [4] = test article 1 uM, single replicates
# [5] = test article 10 uM, single replicates
# [6] = test article 100 uM, single replicates
structure (smiles),measurement,setting,value
CC(C)C[C@H](NC(=O)CNC(=O)[C@H](CC(C)C)NC(=O)[C@H](CCC(N)=O)NC(=O)CNC(=O)[C@@H]1C[C@@H](O)CN1)C(=O)N[C@@H](C)C(=O)NCC(=O)N1CCC[C@H]1C(=O)N[C@@H](CCCCN)C(=O)O [YDE-011] (H-[Hyp]GQLGLAGPK-OH),TIMP-1 Concentration,"test article 0.001 uM, Mean",1792.7 pg/mL
same,TIMP-1 MFI,"test article 0.001 uM, Mean",946.7
same,TIMP-1 conc/live cell,"test article 0.001 uM, Mean",339.5 pg/10^5
same,TIMP-1 Concentration,[1],1831.6 pg/mL and 1659.9 pg/mL and 1886.6 pg/mL
same,TIMP-1 MFI,[1],974.0 and 852.5 and 1013.5
same,TIMP-1 conc/live cell,[1],407.0 pg/10^5 and 286.2 pg/10^5 and 325.3 pg/10^5
same,TIMP-1 Concentration,"test article 0.01 uM, Mean",1879.9 pg/mL
same,TIMP-1 MFI,"test article 0.01 uM, Mean",1009.2
same,TIMP-1 conc/live cell,"test article 0.01 uM, Mean",325.5 pg/10^5
same,TIMP-1 Concentration,[2],1811.3 pg/mL and 2050.0 pg/mL and 1778.3 pg/mL
same,TIMP-1 MFI,[2],959.5 and 1132.0 and 936.0
same,TIMP-1 conc/live cell,[2],292.1 pg/10^5 and 402.0 pg/10^5 and 282.3 pg/10^5
same,TIMP-1 Concentration,"test article 0.1 uM, Mean",1831.1 pg/mL
same,TIMP-1 MFI,"test article 0.1 uM, Mean",974.2
same,TIMP-1 conc/live cell,"test article 0.1 uM, Mean",320.0 pg/10^5
same,TIMP-1 Concentration,[3],1879.7 pg/mL and 1677.8 pg/mL and 1935.9 pg/mL
same,TIMP-1 MFI,[3],1008.5 and 865.0 and 1049.0
same,TIMP-1 conc/live cell,[3],284.8 pg/10^5 and 335.6 pg/10^5 and 339.6 pg/10^5
same,TIMP-1 Concentration,"test article 1 uM, Mean",1791.4 pg/mL
same,TIMP-1 MFI,"test article 1 uM, Mean",945.5
same,TIMP-1 conc/live cell,"test article 1 uM, Mean",356.7 pg/10^5
same,TIMP-1 Concentration,[4],1869.9 pg/mL and 1750.8 pg/mL and 1753.6 pg/mL
same,TIMP-1 MFI,[4],1001.5 and 916.5 and 918.5
same,TIMP-1 conc/live cell,[4],340.0 pg/10^5 and 364.7 pg/10^5 and 365.3 pg/10^5
same,TIMP-1 Concentration,"test article 10 uM, Mean",1768.2 pg/mL
same,TIMP-1 MFI,"test article 10 uM, Mean",929.0
same,TIMP-1 conc/live cell,"test article 10 uM, Mean",335.3 pg/10^5
same,TIMP-1 Concentration,[5],1820.4 pg/mL and 1794.4 pg/mL and 1689.9 pg/mL
same,TIMP-1 MFI,[5],966.0 and 947.5 and 873.5
same,TIMP-1 conc/live cell,[5],337.1 pg/10^5 and 309.4 pg/10^5 and 359.5 pg/10^5
same,TIMP-1 Concentration,"test article 100 uM, Mean",2184.4 pg/mL
same,TIMP-1 MFI,"test article 100 uM, Mean",1231.0
same,TIMP-1 conc/live cell,"test article 100 uM, Mean",360.0 pg/10^5
same,TIMP-1 Concentration,[6],2326.8 pg/mL and 2121.7 pg/mL and 2104.6 pg/mL
same,TIMP-1 MFI,[6],1336.5 and 1184.5 and 1172.0
same,TIMP-1 conc/live cell,[6],381.4 pg/10^5 and 347.8 pg/10^5 and 350.8 pg/10^5
